Data taken from patent US8575183B2, “Heterocyclic compounds and their uses” (priority 2010, dated 2013).
“And” between values parts separate entries of the source, which are not always exact repeats. Identical values can stand only once.

Each compound was assayed against T1, PI3k δ (Homo sapiens, UniProt O00329) (assay: biochemical). Settings: not given.
T1 construct: Full length p110 subunits of PI3k α, β and δ; polyHis (N); made in house; host or cells: Sf9 insect cells (baculovirus)
T1 sequence (O00329 whole entry): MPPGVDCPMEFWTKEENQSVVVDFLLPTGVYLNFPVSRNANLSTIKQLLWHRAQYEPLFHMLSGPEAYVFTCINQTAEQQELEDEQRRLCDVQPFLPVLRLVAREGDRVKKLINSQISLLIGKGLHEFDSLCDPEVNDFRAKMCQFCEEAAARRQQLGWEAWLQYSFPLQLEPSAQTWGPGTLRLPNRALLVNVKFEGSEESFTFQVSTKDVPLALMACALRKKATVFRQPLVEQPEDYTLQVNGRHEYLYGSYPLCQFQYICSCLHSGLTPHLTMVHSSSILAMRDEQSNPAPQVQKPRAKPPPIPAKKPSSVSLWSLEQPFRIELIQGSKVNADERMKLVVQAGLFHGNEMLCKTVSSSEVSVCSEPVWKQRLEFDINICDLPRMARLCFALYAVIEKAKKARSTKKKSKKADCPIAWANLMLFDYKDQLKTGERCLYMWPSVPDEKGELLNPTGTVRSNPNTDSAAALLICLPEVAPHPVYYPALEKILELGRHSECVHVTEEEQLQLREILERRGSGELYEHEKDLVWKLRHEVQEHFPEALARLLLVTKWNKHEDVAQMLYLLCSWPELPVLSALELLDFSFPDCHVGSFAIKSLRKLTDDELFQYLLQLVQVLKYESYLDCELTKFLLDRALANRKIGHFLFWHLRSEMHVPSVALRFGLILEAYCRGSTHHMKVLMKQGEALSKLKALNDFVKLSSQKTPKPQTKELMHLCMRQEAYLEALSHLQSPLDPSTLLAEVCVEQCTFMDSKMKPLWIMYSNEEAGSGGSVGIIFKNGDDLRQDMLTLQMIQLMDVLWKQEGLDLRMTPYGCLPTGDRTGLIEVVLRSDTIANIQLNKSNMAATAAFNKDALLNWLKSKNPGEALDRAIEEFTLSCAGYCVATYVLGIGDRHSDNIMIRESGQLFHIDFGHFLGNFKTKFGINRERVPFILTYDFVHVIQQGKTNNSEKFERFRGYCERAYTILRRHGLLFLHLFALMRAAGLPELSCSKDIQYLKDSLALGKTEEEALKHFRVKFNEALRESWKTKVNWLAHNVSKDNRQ
T1 sequence (P27986 whole entry partner): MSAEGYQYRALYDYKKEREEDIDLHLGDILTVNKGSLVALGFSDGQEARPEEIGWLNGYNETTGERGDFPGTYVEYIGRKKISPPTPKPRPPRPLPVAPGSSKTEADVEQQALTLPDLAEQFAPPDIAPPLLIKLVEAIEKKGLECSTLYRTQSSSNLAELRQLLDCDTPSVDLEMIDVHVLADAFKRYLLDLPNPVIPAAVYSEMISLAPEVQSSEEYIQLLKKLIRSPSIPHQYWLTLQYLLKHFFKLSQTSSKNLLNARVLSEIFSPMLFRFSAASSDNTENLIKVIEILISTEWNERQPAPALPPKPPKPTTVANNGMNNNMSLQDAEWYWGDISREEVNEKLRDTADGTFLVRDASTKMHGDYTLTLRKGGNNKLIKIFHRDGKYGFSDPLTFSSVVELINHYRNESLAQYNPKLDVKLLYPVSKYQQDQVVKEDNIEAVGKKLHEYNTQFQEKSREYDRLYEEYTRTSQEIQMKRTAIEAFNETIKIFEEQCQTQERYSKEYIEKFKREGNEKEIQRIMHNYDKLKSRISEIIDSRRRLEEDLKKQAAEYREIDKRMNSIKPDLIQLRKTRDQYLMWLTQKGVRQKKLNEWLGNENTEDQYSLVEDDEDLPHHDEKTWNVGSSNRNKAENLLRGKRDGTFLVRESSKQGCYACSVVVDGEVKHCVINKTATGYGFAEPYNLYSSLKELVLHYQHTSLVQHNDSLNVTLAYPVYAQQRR
Format: biochemical
Protocol: Full length p110 subunits of PI3k α, β and δ, N-terminally labeled with polyHis tag, were coexpressed with p85 with Baculo virus expression vectors in sf9 insect cells. P110/p85 heterodimers were purified by sequential Ni-NTA, Q-HP, Superdex-100 chromatography. Purified α, β and δ isozymes were stored at −20° C. in 20 mM Tris, pH 8, 0.2M NaCl, 50% glycerol, 5 mM DTT, 2 mM Na cholate. […] The γ isozyme was purified by sequential Ni-NTA, Superdex-200, Q-HP chromatography. The γ isozyme was stored frozen at −80° C. in NaH2PO4, pH 8, 0.2M NaCl, 1% ethylene glycol, 2 mM β-mercaptoethanol.
Phospatidyl inositol phosphoacceptor, Ptdlns(4,5)P2 P4508, was from Echelon Biosciences. […] Test compounds were dissolved in dimethyl sulfoxide and diluted with three-fold serial dilutions. The compound in DMSO (1 μL) was added per test well, and the inhibition relative to reactions containing no compound, with and without enzyme was determined. After assay incubation at rt, the reaction was stopped and residual ATP determined by addition of an equal volume of a commercial ATP bioluminescence kit (Perkin Elmer EasyLite) according to the manufacturer's instructions, and detected using a AnalystGT luminometer.
For `CC(Nc1ncnc(N)c1C#N)c1nc2cccc(S(C)(=O)=O)c2n1C1CC1` (stereo not shown), the Ki was 3.76 nM.

Same assay, conditions: read-out: PI3k δ Ki
In the case of `CC[C@H](Nc1ncnc2[nH]cnc12)c1nc2cccc(C(F)(F)F)c2n1CC1CC1` [N-((1S)-1-(1-(cyclopropylmethyl)-7-(trifluoromethyl)-1H-benzimidazol-2-yl)propyl)-9H-purin-6-amine], the Ki is reported as 100 nM. `CNC(=O)c1cccc(-n2c([C@@H](C)Nc3ncnc(N)c3C#N)nc3ccc(F)cc32)c1` [3-(2-((1R)-1-((6-amino-5-cyano-4-pyrimidinyl)amino)ethyl)-6-fluoro-1H-benzimidazol-1-yl)-N-methylbenzamide] showed a Ki of 4670 nM. Work on `CNC(=O)c1cccc(-n2c([C@H](C)Nc3ncnc(N)c3C#N)nc3ccc(F)cc32)c1` [3-(2-((1S)-1-((6-amino-5-cyano-4-pyrimidinyl)amino)ethyl)-6-fluoro-1H-benzimidazol-1-yl)-N-methylbenzamide] yielded a Ki of 18.3 nM. For `C[C@H](Nc1ncnc(N)c1C#N)c1nc2ccccn2c1-c1ccc(Cl)cc1` [4-amino-6-(((1S)-1-(3-(4-chlorophenyl)imidazo[1,2-a]pyridin-2-yl)ethyl)amino)-5-pyrimidinecarbonitrile], the Ki was 74 nM. `COC(=O)c1cccc2nc([C@H](C)Nc3ncnc(N)c3C#N)c(-c3cccnc3)n12` [methyl 2-((1S)-1-((6-amino-5-cyano-4-pyrimidinyl)amino)ethyl)-3-(3-pyridinyl)imidazo[1,2-a]pyridine-5-carboxylate] showed a Ki of 147 nM. `C[C@H](Nc1ncnc(N)c1C#N)c1nc2cccc(S(C)(=O)=O)c2n1C1CC1` [4-amino-6-(((1S)-1-(1-cyclopropyl-7-(methylsulfonyl)-1H-benzimidazol-2-yl)ethyl)amino)-5-pyrimidinecarbonitrile] was tested, and the Ki was 2.83 nM. For `C[C@H](Nc1ncnc(N)c1C#N)c1nc2ccc(F)cc2n1-c1cccc(-c2ccccn2)c1` [4-amino-6-(((1S)-1-(6-fluoro-1-(3-(2-pyridinyl)phenyl)-1H-benzimidazol-2-yl)ethyl)amino)-5-pyrimidinecarbonitrile], the Ki was 8.9 nM and 3.8 nM. Work on `C[C@H](Nc1ncnc(N)c1C#N)c1nc2ncccc2n1-c1ccccn1` [4-amino-6-(((1S)-1-(1-(2-pyridinyl)-1H-imidazo[4,5-b]pyridin-2-yl)ethyl)amino)-5-pyrimidinecarbonitrile] yielded a Ki of 1620 nM. `C[C@@H](Nc1ncnc(N)c1C#N)c1nc2c(F)cc(F)cc2n1-c1cccnc1` [4-amino-6-(((1R)-1-(4,6-difluoro-1-(3-pyridinyl)-1H-benzimidazol-2-yl)ethyl)amino)-5-pyrimidinecarbonitrile] was tested, and the Ki was 1290 nM. Work on `C[C@@H](Nc1ncnc(N)c1C#N)c1nc2c(F)cc(F)cc2n1-c1cc(F)cc(F)c1` [4-amino-6-(((1R)-1-(1-(3,5-difluorophenyl)-4,6-difluoro-1H-benzimidazol-2-yl)ethyl)amino)-5-pyrimidinecarbonitrile] yielded a Ki of 251 nM. With `C[C@H](Nc1ncnc(N)c1C#N)c1nc2c(F)cc(F)cc2n1-c1cc(F)cc(F)c1` [4-amino-6-(((1S)-1-(1-(3,5-difluorophenyl)-4,6-difluoro-1H-benzimidazol-2-yl)ethyl)amino)-5-pyrimidinecarbonitrile] the Ki was 2.6 nM. For `C[C@H](Nc1ncnc(N)c1C#N)c1nc2c(F)cccc2n1-c1cc(F)cc(F)c1` [4-amino-6-(((1S)-1-(1-(3,5-difluorophenyl)-4-fluoro-1H-benzimidazol-2-yl)ethyl)amino)-5-pyrimidinecarbonitrile], the Ki was 6.4 nM and 2.1 nM. `C[C@H](Nc1ncnc(N)c1C#N)c1nc2cc(F)ccc2n1CC1CC1` [4-amino-6-(((1S)-1-(1-(cyclopropylmethyl)-5-fluoro-1H-benzimidazol-2-yl)ethyl)amino)-5-pyrimidinecarbonitrile] was tested, and the Ki was 6 nM and 25.8 nM. Work on `C[C@H](Nc1ncnc(N)c1C#N)c1nc2cccc(S(C)(=O)=O)c2[nH]1` [4-amino-6-(((1S)-1-(7-(methylsulfonyl)-1H-benzimidazol-2-yl)ethyl)amino)-5-pyrimidinecarbonitrile] yielded a Ki of 45.5 nM. Compound `C[C@@H](Nc1ncnc(N)c1C#N)c1nc2ccc(F)cc2n1-c1cncc(NS(C)(=O)=O)c1` [N-(5-(2-((1R)-1-((6-amino-5-cyano-4-pyrimidinyl)amino)ethyl)-6-fluoro-1H-benzimidazol-1-yl)-3-pyridinyl)methanesulfonamide] has a Ki of 600 nM. Work on `CC[C@H](Nc1ncnc(N)c1C#N)c1nc2cccc(S(C)(=O)=O)c2n1Cc1ccc(F)cc1` [4-amino-6-(((1S)-1-(1-(4-fluorobenzyl)-7-(methylsulfonyl)-1H-benzimidazol-2-yl)propyl)amino)-5-pyrimidinecarbonitrile] yielded a Ki of 27.4 nM. With `C[C@@H](Nc1ncnc(N)c1C#N)c1nc2cccc(C#N)c2n1-c1cncc(F)c1` [2-((1R)-1-((6-amino-5-cyano-4-pyrimidinyl)amino)ethyl)-1-(5-fluoro-3-pyridinyl)-1H-benzimidazole-7-carbonitrile] the Ki was 325 nM. `CSc1cccc(-n2c([C@H](C)Nc3ncnc(N)c3C#N)nc3cc(F)ccc32)c1` [4-amino-6-(((1S)-1-(5-fluoro-1-(3-(methylsulfanyl)phenyl)-1H-benzimidazol-2-yl)ethyl)amino)-5-pyrimidinecarbonitrile] showed a Ki of 44.1 nM. Compound `CNC(=O)c1cccc2nc([C@H](C)Nc3ncnc(N)c3S(C)(=O)=O)n(C3CC3)c12` [2-((1S)-1-((6-amino-5-(methylsulfonyl)-4-pyrimidinyl)amino)ethyl)-1-cyclopropyl-N-methyl-1H-benzimidazole-7-carboxamide] has a Ki of 30 nM. `N#Cc1c(N)ncnc1NCc1nc2c(Cl)cccn2c1-c1ccccc1` [4-amino-6-(((8-chloro-3-phenylimidazo[1,2-a]pyridin-2-yl)methyl)amino)-5-pyrimidinecarbonitrile] gave a Ki of 230 nM. In the case of `C[C@H](Nc1ncnc(N)c1C#N)c1nc2ccc(F)cc2n1-c1cncc(NS(C)(=O)=O)c1` [N-(5-(2-((1S)-1-((6-amino-5-cyano-4-pyrimidinyl)amino)ethyl)-6-fluoro-1H-benzimidazol-1-yl)-3-pyridinyl)methanesulfonamide], the Ki is reported as 11.9 nM. Work on `C[C@H](Nc1ncnc(N)c1C#N)c1nc2cccc(C(=O)NC3CC3)n2c1-c1ccccc1` [2-((1S)-1-((6-amino-5-cyano-4-pyrimidinyl)amino)ethyl)-N-cyclopropyl-3-phenylimidazo[1,2-a]pyridine-5-carboxamide] yielded a Ki of 17.4 nM. `C[C@H](Nc1ncnc(N)c1C#N)c1nc2ccc(F)cn2c1-c1ccc(Cl)cc1` [4-amino-6-(((1S)-1-(3-(4-chlorophenyl)-6-fluoroimidazo[1,2-a]pyridin-2-yl)ethyl)amino)-5-pyrimidinecarbonitrile] showed a Ki of 25.1 nM. `C[C@H](Nc1ncnc(N)c1C#N)c1nc2cccc(F)c2[nH]1` [4-amino-6-(((1S)-1-(7-fluoro-1H-benzimidazol-2-yl)ethyl)amino)-5-pyrimidinecarbonitrile] was tested, and the Ki was 173 nM. `C[C@H](Nc1ncnc(N)c1C#N)c1nc2cccc(F)c2n1-c1cc(F)cc(F)c1` [4-amino-6-(((1S)-1-(1-(3,5-difluorophenyl)-7-fluoro-1H-benzimidazol-2-yl)ethyl)amino)-5-pyrimidinecarbonitrile] gave a Ki of 3.7 nM. Compound `C[C@H](Nc1ncnc(N)c1C#N)c1nc2c(S(C)(=O)=O)cccc2n1C1CCCC1` [4-amino-6-(((1S)-1-(1-cyclopentyl-4-(methylsulfonyl)-1H-benzimidazol-2-yl)ethyl)amino)-5-pyrimidinecarbonitrile] has a Ki of 1440 nM. `C[C@H](Nc1ncnc(N)c1C#N)c1nc2cccc(C(=O)NC3CC3)c2n1C1CC1` [2-((1S)-1-((6-amino-5-cyano-4-pyrimidinyl)amino)ethyl)-N,1-dicyclopropyl-1H-benzimidazole-7-carboxamide] showed a Ki of 17.5 nM. For `C[C@H](Nc1ncnc(N)c1C#N)c1nc2cccc(C(=O)NC3CCCC3)c2n1C1CC1` [2-((1S)-1-((6-amino-5-cyano-4-pyrimidinyl)amino)ethyl)-N-cyclopentyl-1-cyclopropyl-1H-benzimidazole-7-carboxamide], the Ki was 18.4 nM. Compound `C[C@H](Nc1ncnc(N)c1C#N)c1nc2cc(F)c(F)cc2n1-c1cncc(F)c1` [4-amino-6-(((1S)-1-(5,6-difluoro-1-(5-fluoro-3-pyridinyl)-1H-benzimidazol-2-yl)ethyl)amino)-5-pyrimidinecarbonitrile] has a Ki of 57.5 nM. For `C[C@H](Nc1ncnc(N)c1C#N)c1nc2cccc(C#N)c2n1-c1cncc(F)c1` [2-((1S)-1-((6-amino-5-cyano-4-pyrimidinyl)amino)ethyl)-1-(5-fluoro-3-pyridinyl)-1H-benzimidazole-7-carbonitrile], the Ki was 171 nM. For `C[C@H](Nc1ncnc(N)c1C#N)c1nc2cccc(S(C)(=O)=O)c2n1CC1CC1` [4-amino-6-(((1S)-1-(1-(cyclopropylmethyl)-7-(methylsulfonyl)-1H-benzimidazol-2-yl)ethyl)amino)-5-pyrimidinecarbonitrile], the Ki was 2.2 nM. `CC[C@H](Nc1ncnc(N)c1C#N)c1nc2cccc(C(F)(F)F)c2n1Cc1ccc(F)cc1` [4-amino-6-(((1S)-1-(1-(4-fluorobenzyl)-7-(trifluoromethyl)-1H-benzimidazol-2-yl)propyl)amino)-5-pyrimidinecarbonitrile] gave a Ki of 464 nM. `C[C@@H](Nc1ncnc(N)c1C#N)c1nc2cc(F)ccc2n1-c1cncc(F)c1` [4-amino-6-(((1R)-1-(5-fluoro-1-(5-fluoro-3-pyridinyl)-1H-benzimidazol-2-yl)ethyl)amino)-5-pyrimidinecarbonitrile] was tested, and the Ki was 2820 nM.
